Values of other authors in US11524044B2, “Strengthening and tumor eliminating traditional Chinese medicine composition, its preparation method and application” (The First Afiliated Hospital Of Guangzhou University Of …, priority 2020, dated 2022).

Legend:
[1] = test system: human colon cancer, liver cancer, gastric cancer, lung cancer and breast cancer related cells
[2] = test system: ADP induced platelet aggregation

SMILES | cytotoxicity [1] | inhibition of ADP induced platelet aggregation [2]
COc1cc(O)c(-c2c(O)cc(OC)c3c2ccc2cc(O)ccc23)c2c1-c1ccc(O)cc1CC2 [Cirrhopetalanthrin] | moderate cytotoxicity | 
N#C[C@H](O[C@@H]1O[C@H](CO[C@@H]2O[C@H](CO)[C@@H](O)[C@H](O)[C@H]2O)[C@@H](O)[C@H](O)[C@H]1O)c1ccccc1 [amygdalin] |  | inhibit ADP induced platelet aggregation in varying degrees
